Target: human MRGPRD (Homo sapiens, UniProt Q8TDS7)
Assay: MRGPRD antagonist activity, IP-One HTRF assay in CHO cells stably expressing human MRGPRD (versus 100 μM β-Alanine agonist)
Assay type: cell-based
Summary of the method: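 CHO cells stably expressing human MRGPRD, plated overnight at 37 °C, were treated with antagonist plus agonist in Tris-HCl/NaCl/LiCl buffer pH 8, incubated 1 h at 37 °C then 1 h at room temperature. IP-1 accumulation read by HTRF; IC50 and percent antagonism of maximum efficacy averaged, SEM reported.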

Chain of human MRGPRD (Q8TDS7 whole entry): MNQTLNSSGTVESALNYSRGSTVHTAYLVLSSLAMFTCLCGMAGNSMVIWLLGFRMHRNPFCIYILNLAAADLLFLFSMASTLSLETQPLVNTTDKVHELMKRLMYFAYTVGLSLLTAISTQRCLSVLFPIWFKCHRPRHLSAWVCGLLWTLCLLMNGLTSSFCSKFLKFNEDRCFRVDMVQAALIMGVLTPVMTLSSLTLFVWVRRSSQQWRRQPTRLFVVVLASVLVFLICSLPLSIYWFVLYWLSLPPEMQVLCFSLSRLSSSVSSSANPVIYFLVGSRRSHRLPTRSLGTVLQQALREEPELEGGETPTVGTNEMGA

| Structure (SMILES) | IC50 |
| --- | --- |
| Cc1ccc(CNC(=O)c2nnn(-c3ccc(-c4cnn(Cc5ccccc5)c4)cc3)c2C2CC2)cn1 [Compound 7-108] | 100 to 500 nM |
| Cn1nc(C2CC2)cc1-c1ccc(-n2nnc(C(=O)Nc3ccncc3)c2C2CC2)cc1 [Compound 7-109] | 100 to 500 nM |
| Cn1nc(-c2ccc(-n3nnc(C(=O)Nc4ccncc4)c3C3CC3)cc2)cc1-c1ccccc1 [Compound 7-111] | 100 to 500 nM |
| O=C(Nc1ccncc1)c1nnn(-c2ccc(C3=CCOCC3)cc2)c1C1CC1 [Compound 7-114] | 500 to 1000 nM |
| CC(O)c1cccc(-c2ccc(-n3nnc(C(=O)Nc4ccncc4)c3C3CC3)cc2)c1 (centres unmarked) [Compound 7-117] | 500 to 1000 nM |
| Cc1nn(C(F)F)cc1-c1ccc(-n2nnc(C(=O)Nc3ccncc3)c2C2CC2)cc1 [Compound 7-118] | 500 to 1000 nM |
| Cc1c(-c2ccc(-n3nnc(C(=O)Nc4ccncc4)c3C3CC3)cc2)c(C#N)nn1C [Compound 7-120] | 500 to 1000 nM |
| O=C(Nc1ccncc1)c1nnn(-c2ccc(-c3cccc(C(F)F)c3)cc2)c1C1CC1 [Compound 7-122] | 500 to 1000 nM |
| O=C(Nc1ccncc1)c1nnn(-c2ccc(-c3cnn(CC(F)(F)F)c3)cc2)c1C1CC1 [Compound 7-123] | 500 to 1000 nM |
| O=C(Nc1ccncc1)c1nnn(-c2ccc(-c3ccc(C4CCC4)cc3)cc2)c1C1CC1 [Compound 7-127] | 500 to 1000 nM |
| CC(C)Oc1ccc(-c2ccc(-n3nnc(C(=O)Nc4ccncc4)c3C3CC3)cc2)cc1 [Compound 7-131] | 500 to 1000 nM |
| Cc1nn(C)c(CO)c1-c1ccc(-n2nnc(C(=O)Nc3ccncc3)c2C2CC2)cc1 [Compound 7-133] | 500 to 1000 nM |
| NS(=O)(=O)c1cccc(-c2ccc(-n3nnc(C(=O)Nc4ccncc4)c3C3CC3)cc2)c1 [Compound 7-135] | 500 to 1000 nM |
| O=C(Nc1ccncc1)c1nnn(-c2ccc(-c3cnn(C(F)F)c3)cc2)c1C1CC1 [Compound 7-137] | 500 to 1000 nM |
| NS(=O)(=O)c1ccc(-c2ccc(-n3nnc(C(=O)Nc4ccncc4)c3C3CC3)cc2)cc1 [Compound 7-141] | 500 to 1000 nM |
| CC(C)(C)n1cc(-c2ccc(-n3nnc(C(=O)Nc4ccncc4)c3C3CC3)cc2)cn1 [Compound 7-142] | 500 to 1000 nM |
| Cn1ncc(-c2ccc(-n3nnc(C(=O)Nc4ccncc4)c3C3CC3)cc2)c1-c1ccccc1 [Compound 7-144] | 500 to 1000 nM |
| CN(C)Cc1cccc(-c2ccc(-n3nnc(C(=O)Nc4ccncc4)c3C3CC3)cc2)c1 [Compound 7-146] | 500 to 1000 nM |

| Structure (SMILES) | IC50 |
| --- | --- |
| CC(=O)c1ccc(-c2ccc(-n3nnc(C(=O)Nc4ccncc4)c3C3CC3)cc2)s1 [Compound 7-147] | 500 to 1000 nM |
| CC(C)Oc1cccc(-c2ccc(-n3nnc(C(=O)Nc4ccncc4)c3C3CC3)cc2)c1 [Compound 7-148] | 500 to 1000 nM |
| O=C(Nc1ccncc1)c1nnn(-c2ccc(-c3ccc(CC4CC4)cc3)cc2)c1C1CC1 [Compound 7-149] | 500 to 1000 nM |
| N#CCc1ccccc1-c1ccc(-n2nnc(C(=O)Nc3ccncc3)c2C2CC2)cc1 [Compound 7-154] | 500 to 1000 nM |
| O=C(Nc1ccncc1)c1nnn(-c2ccc(-c3cccc(C(F)(F)F)c3)cc2)c1C1CC1 [Compound 7-155] | 500 to 1000 nM |
| O=C(Nc1ccncc1)c1nnn(-c2ccc(-c3ccnn3-c3ccccc3)cc2)c1C1CC1 [Compound 7-156] | 500 to 1000 nM |
| CC(C)n1nc(C(F)(F)F)cc1-c1ccc(-n2nnc(C(=O)Nc3ccncc3)c2C2CC2)cc1 [Compound 7-157] | 500 to 1000 nM |
| COCn1cc(-c2ccc(-n3nnc(C(=O)Nc4ccncc4)c3C3CC3)cc2)cn1 [Compound 7-158] | 500 to 1000 nM |
| CC(C)Oc1ccccc1-c1ccc(-n2nnc(C(=O)Nc3ccncc3)c2C2CC2)cc1 [Compound 7-160] | 500 to 1000 nM |
| O=C(Nc1ccncc1)c1nnn(-c2ccc(-c3cccc(OC(F)(F)F)c3)cc2)c1C1CC1 [Compound 7-162] | 1000 to 3000 nM |
| O=C(Nc1ccncc1)c1nnn(-c2ccc(-c3cccc(C4CCCCC4)c3)cc2)c1C1CC1 [Compound 7-166] | 1000 to 3000 nM |
| COCc1cccc(-c2ccc(-n3nnc(C(=O)Nc4ccncc4)c3C3CC3)cc2)c1 [Compound 7-167] | 1000 to 3000 nM |
| O=C(Nc1ccncc1)c1nnn(-c2ccc(-c3ccnn3CC3CC3)cc2)c1C1CC1 [Compound 7-168] | 1000 to 3000 nM |
| O=C(Nc1ccncc1)c1nnn(-c2ccc(-c3ccccc3C(F)(F)F)cc2)c1C1CC1 [Compound 7-169] | 1000 to 3000 nM |
| CN(C)c1ccccc1-c1ccc(-n2nnc(C(=O)Nc3ccncc3)c2C2CC2)cc1 [Compound 7-172] | 1000 to 3000 nM |
| CC(=O)c1ccc(-c2ccc(-n3nnc(C(=O)Nc4ccncc4)c3C3CC3)cc2)cc1C [Compound 7-174] | 1000 to 3000 nM |
| CC(C)n1cc(-c2ccc(-n3nnc(C(=O)Nc4ccncc4)c3C3CC3)cc2)cn1 [Compound 7-175] | 1000 to 3000 nM |

More lines, now with the values ahead:

| IC50 | Structure (SMILES) |
| --- | --- |
| 100 to 500 nM | Cc1cn(C)nc1-c1ccc(-n2nnc(C(=O)Nc3ccncc3)c2C2CC2)cc1 [Compound 7-110] |
| 100 to 500 nM | COc1ccccc1-c1ccc(-n2nnc(C(=O)Nc3ccncc3)c2C2CC2)cc1 [Compound 7-112] |
| 500 to 1000 nM | Cc1cccc(-c2ccc(-n3nnc(C(=O)Nc4ccncc4)c3C3CC3)cc2)c1 [Compound 7-113] |
| 500 to 1000 nM | Cc1nc(-c2ccc(-n3nnc(C(=O)Nc4ccncc4)c3C3CC3)cc2)sc1C [Compound 7-115] |
| 500 to 1000 nM | O=C(Nc1ccncc1)c1nnn(-c2ccc(-c3ccnn3C3CCC3)cc2)c1C1CC1 [Compound 7-116] |
| 500 to 1000 nM | Cc1c[nH]nc1-c1ccc(-n2nnc(C(=O)Nc3ccncc3)c2C2CC2)cc1 [Compound 7-119] |
| 500 to 1000 nM | Cc1cc(-c2ccc(-n3nnc(C(=O)Nc4ccncc4)c3C3CC3)cc2)c(C)s1 [Compound 7-121] |
| 500 to 1000 nM | Cn1cnc(-c2ccc(-n3nnc(C(=O)Nc4ccncc4)c3C3CC3)cc2)c1 [Compound 7-124] |
| 500 to 1000 nM | O=C(Nc1ccncc1)c1nnn(-c2ccc(-c3ccns3)cc2)c1C1CC1 [Compound 7-125] |
| 500 to 1000 nM | Cn1cc(-c2ccc(-n3nnc(C(=O)Nc4ccncc4)c3C3CC3)cc2)cn1 [Compound 7-126] |
| 500 to 1000 nM | Cc1[nH]nc(-c2ccc(-n3nnc(C(=O)Nc4ccncc4)c3C3CC3)cc2)c1Cl [Compound 7-128] |
| 500 to 1000 nM | O=C(Nc1ccncc1)c1nnn(-c2ccc(-c3ccccc3F)cc2)c1C1CC1 [Compound 7-129] |
| 500 to 1000 nM | O=C(Nc1ccncc1)c1nnn(-c2ccc(-c3n[nH]cc3F)cc2)c1C1CC1 [Compound 7-130] |
| 500 to 1000 nM | Cc1cc(-c2ccc(-n3nnc(C(=O)Nc4ccncc4)c3C3CC3)cc2)n(C)n1 [Compound 7-132] |
| 500 to 1000 nM | CC(=O)c1ccccc1-c1ccc(-n2nnc(C(=O)Nc3ccncc3)c2C2CC2)cc1 [Compound 7-134] |
| 500 to 1000 nM | C#Cc1cccc(-c2ccc(-n3nnc(C(=O)Nc4ccncc4)c3C3CC3)cc2)c1 [Compound 7-136] |
| 500 to 1000 nM | COc1cc(-c2ccc(-n3nnc(C(=O)Nc4ccncc4)c3C3CC3)cc2)n[nH]1 [Compound 7-138] |
| 500 to 1000 nM | N#Cc1cccc(-c2ccc(-n3nnc(C(=O)Nc4ccncc4)c3C3CC3)cc2)c1 [Compound 7-139] |
| 500 to 1000 nM | Cc1csc(-c2ccc(-n3nnc(C(=O)Nc4ccncc4)c3C3CC3)cc2)n1 [Compound 7-140] |
| 500 to 1000 nM | N#Cc1c[nH]nc1-c1ccc(-n2nnc(C(=O)Nc3ccncc3)c2C2CC2)cc1 [Compound 7-143] |
| 500 to 1000 nM | O=C(Nc1ccncc1)c1nnn(-c2ccc(-c3ccccc3Cl)cc2)c1C1CC1 [Compound 7-145] |

| IC50 | Structure (SMILES) |
| --- | --- |
| 500 to 1000 nM | C#Cc1ccc(-c2ccc(-n3nnc(C(=O)Nc4ccncc4)c3C3CC3)cc2)cc1 [Compound 7-150] |
| 500 to 1000 nM | O=C(Nc1ccncc1)c1nnn(-c2ccc(-c3ccccc3CO)cc2)c1C1CC1 [Compound 7-151] |
| 500 to 1000 nM | O=C(Nc1ccncc1)c1nnn(-c2ccc(-c3cccs3)cc2)c1C1CC1 [Compound 7-152] |
| 500 to 1000 nM | COc1cccc(-c2ccc(-n3nnc(C(=O)Nc4ccncc4)c3C3CC3)cc2)c1 [Compound 7-153] |
| 500 to 1000 nM | O=C(Nc1ccncc1)c1nnn(-c2ccc(-c3ccccc3O)cc2)c1C1CC1 [Compound 7-161] |
| 1000 to 3000 nM | Cn1ccnc1-c1ccc(-n2nnc(C(=O)Nc3ccncc3)c2C2CC2)cc1 [Compound 7-163] |
| 1000 to 3000 nM | Cn1nc(-c2ccc(-n3nnc(C(=O)Nc4ccncc4)c3C3CC3)cc2)c2ccccc21 [Compound 7-164] |
| 1000 to 3000 nM | O=C(Nc1ccncc1)c1nnn(-c2ccc(-c3n[nH]c4cnccc34)cc2)c1C1CC1 [Compound 7-165] |
| 1000 to 3000 nM | O=C(Nc1ccncc1)c1nnn(-c2ccc(-c3cccc(O)c3)cc2)c1C1CC1 [Compound 7-170] |
| 1000 to 3000 nM | O=C(Nc1ccncc1)c1nnn(-c2ccc(-c3cccc(CO)c3)cc2)c1C1CC1 [Compound 7-171] |
| 1000 to 3000 nM | O=C(Nc1ccncc1)c1nnn(-c2ccc(-c3cn[nH]c3)cc2)c1C1CC1 [Compound 7-173] |
| 1000 to 3000 nM | O=C(Nc1ccncc1)c1nnn(-c2ccc(-c3cscn3)cc2)c1C1CC1 [Compound 7-176] |
| 1000 to 3000 nM | O=C(Nc1ccncc1)c1nnn(-c2ccc(-c3nccs3)cc2)c1C1CC1 [Compound 7-177] |
| 1000 to 3000 nM | O=C(Nc1ccncc1)c1nnn(-c2ccc(-c3ccncc3)cc2)c1C1CC1 [Compound 7-178] |
| 1000 to 3000 nM | O=C(Nc1ccncc1)c1nnn(-c2ccc(-c3cccnc3)cc2)c1C1CC1 [Compound 7-179] |
| 1000 to 3000 nM | N#Cc1ccccc1-c1ccc(-n2nnc(C(=O)Nc3ccncc3)c2C2CC2)cc1 [Compound 7-180] |
| 1000 to 3000 nM | Cc1cscc1-c1ccc(-n2nnc(C(=O)Nc3ccncc3)c2C2CC2)cc1 [Compound 7-181] |
| 1000 to 3000 nM | Cc1ccc(-c2ccc(-n3nnc(C(=O)Nc4ccncc4)c3C3CC3)cc2)s1 [Compound 7-182] |
| 1000 to 3000 nM | O=C(Nc1ccncc1)c1nnn(-c2ccc(-c3cc(C(F)(F)F)[nH]n3)cc2)c1C1CC1 [Compound 7-183] |
| 1000 to 3000 nM | Cn1cc(C#N)c(-c2ccc(-n3nnc(C(=O)Nc4ccncc4)c3C3CC3)cc2)n1 [Compound 7-184] |
| 1000 to 3000 nM | COc1ccc(-c2ccc(-n3nnc(C(=O)Nc4ccncc4)c3C3CC3)cc2)cc1F [Compound 7-185] |

From patent US20260001871A1, “TRIAZOLE DERIVATIVES AS MODULATORS OF MAS-RELATED G-PROTEIN RECEPTOR D” (ESCIENT PHARMACEUTICALS, INC., priority 2022, published 2026)
